Source: patent US10800792B2, “Inhibitors of Bruton's tyrosine kinase and method of their use” (JANSSEN PHARMACEUTICA NV, priority 2015, dated 2020)

What follows are molecules tested against unphosphorylated-BTK kinase domain (UP-BTK), GST-tagged human BTK (389-659aa) (Homo sapiens (Human), UniProt Q06187) (assay: BTK kinase Lanthascreen binding assay). Conditions: Lanthascreen tracer competition, 60 minutes incubation; pIC50 = negative log of the IC50 in molar.
How it was run: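 A fluorescent tracer is bound to unphosphorylated BTK; test compound is added to compete it off; the Lanthascreen signal is read and IC50 is fitted, then reported as its negative log in molar.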

Chain of unphosphorylated-BTK kinase domain (UP-BTK), GST-tagged human BTK (389-659aa) (Q06187 389-659): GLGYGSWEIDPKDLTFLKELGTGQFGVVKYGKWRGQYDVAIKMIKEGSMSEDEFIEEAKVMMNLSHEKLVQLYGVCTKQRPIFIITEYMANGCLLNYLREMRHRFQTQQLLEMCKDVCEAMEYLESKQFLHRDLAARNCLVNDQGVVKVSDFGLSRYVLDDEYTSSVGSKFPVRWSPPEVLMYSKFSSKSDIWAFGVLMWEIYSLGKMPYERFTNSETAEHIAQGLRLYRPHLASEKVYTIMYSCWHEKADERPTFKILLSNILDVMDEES

In order of falling “BTK_I_binding pIC50” value:
1. C=CC(=O)N1CC[C@@H](NC(=O)c2sc3nccc4c3c2NC(=O)N4c2cccc(-c3cccc(F)c3F)c2)C1 [Example 673, (R)—N-(1-Acryloylpyrrolidin-3-yl)-5-(2′,3′-difluoro-[1,1′-biphenyl]-3-yl)-4-oxo-4,5-dihydro-3H-1-thia-3,5,8-triazaacenaphthylene-2-carboxamide]  8.2
2. C=CC(=O)N1CCC[C@@H](NC(=O)c2sc3nccc4c3c2NC(=O)N4c2ccnc(-c3cccnc3)c2)C1 [Example 701, (R)-5-([2,3′-Bipyridin]-4-yl)-N-(1-acryloylpiperidin-3-yl)-4-oxo-4,5-dihydro-3H-1-thia-3,5,8-triazaacenaphthylene-2-carboxamide]  7.2
3. O=C(CCCC(=O)NCCCOCCOCCOCCCNC(=O)CCCC[C@H]1SC[C@H]2NC(=O)N[C@H]21)NC/C=C/C(=O)N1CCCC(NC(=O)c2sc3nccc4c3c2NC(=O)N4c2ccc(Oc3ccccc3)cn2)C1 (stereo partly drawn) [Example 780, N^1-(15-Oxo-19-((3aR,4R,6aS)-2-oxohexahydro-1H-thieno[3,4-d]imidazol-4-yl)-4,7,10-trioxa-14-azanonadecyl)-N^5-((E)-4-oxo-4-(3-(4-oxo-5-(5-phenoxypyridin-2-yl)-4,5-dihydro-3H-1-thia-3,5,8-triazaacenaphthylene-2-carboxamido)piperidin-1-yl)but-2-en-1-yl)glutaramide]  6.3
4. Cc1nc(Oc2ccccc2)ncc1N1C(=O)Nc2c(C(=O)N[C@@H]3CCNC3)sc3nccc1c23 (single isomer, unassigned) [Example 715, (R)-5-(*S)-(4-Methyl-2-phenoxypyrimidin-5-yl)-4-oxo-N-(pyrrolidin-3-yl)-4,5-dihydro-3H-1-thia-3,5,8-triazaacenaphthylene-2-carboxamide]  6.3
5. Cc1cc(OC(C)C)ccc1N1C(=O)Nc2c(C(=O)N[C@@H]3CCCN(C(=O)/C=C/CN4C[C@@H]5OCCO[C@@H]5C4)C3)sc3nccc1c23 [Example 608, 5-(4-Isopropoxy-2-methylphenyl)-4-oxo-N—((R)-1-((E)-4-((4aR,7aS)-tetrahydro-2H-[1,4]dioxino[2,3-c]pyrrol-6(3H)-yl)but-2-enoyl)piperidin-3-yl)-4,5-dihydro-3H-1-thia-3,5,8-triazaacenaphthylene-2-carboxamide]  6.2

Same assay, conditions: pIC50 = negative log of the IC50 in molar; 60 minutes incubation, 50 nM Tracer 236

In order of falling “BTK_I_binding pIC50” value:
1. C=CC(=O)N1CC[C@@H](NC(=O)c2sc3nccc4c3c2NC(=O)N4c2ccc(Oc3ccccc3)cc2C)C1 (single isomer, unassigned) [Example 5, (R)—N-(1-Acryloylpyrrolidin-3-yl)-5-(*S)-(2-methyl-4-phenoxyphenyl)-4-oxo-4,5-dihydro-3H-1-thia-3,5,8-triazaacenaphthylene-2-carboxamide]  8.1
2. Cc1cc(Oc2ccccc2)ccc1N1C(=O)Nc2c(C(=O)N[C@@H]3CCCNC3)sc3nccc1c23 (single isomer, unassigned) [Example 98, (R)-5-(*S)-(2-Methyl-4-phenoxyphenyl)-4-oxo-N-(piperidin-3-yl)-4,5-dihydro-3H-1-thia-3,5,8-triazaacenaphthylene-2-carboxamide]  7.3
3. COCC(C)C(=O)N1CCC[C@@H](NC(=O)c2sc3nccc4c3c2NC(=O)N4c2ccc(Oc3ccccc3)cc2C)C1 (stereo partly drawn) [Example 158, N-((3R)-1-(3-Methoxy-2-methylpropanoyl)piperidin-3-yl)-5-(2-methyl-4-phenoxyphenyl)-4-oxo-4,5-dihydro-3H-1-thia-3,5,8-triazaacenaphthylene-2-carboxamide]  7.1
4. Cc1cc(Oc2ccccc2)ccc1N1C(=O)Nc2c(C(=O)N[C@@H]3CCCN(C(=O)C4COC4)C3)sc3nccc1c23 [Example 136, (R)-5-(2-Methyl-4-phenoxyphenyl)-N-(1-(oxetane-3-carbonyl)piperidin-3-yl)-4-oxo-4,5-dihydro-3H-1-thia-3,5,8-triazaacenaphthylene-2-carboxamide]  7.1
5. CCO/C=C/C(=O)N1CCC[C@@H](NC(=O)c2sc3nccc4c3c2NC(=O)N4c2ccc(Oc3ccccc3)cc2C)C1 (mixture of isomers) [Example 221, (R,E)-N-(1-(3-Ethoxyacryloyl)piperidin-3-yl)-5-(2-methyl-4-phenoxyphenyl)-4-oxo-4,5-dihydro-3H-1-thia-3,5,8-triazaacenaphthylene-2-carboxamide]  6.9
6. C=CC(=O)N1CCC[C@@H](NC(=O)c2sc3nccc4c3c2NC(=O)N4c2ccc(C)cc2C)C1 [Example 86, (R)—N-(1-Acryloylpiperidin-3-yl)-5-(2,4-dimethylphenyl)-4-oxo-4,5-dihydro-3H-1-thia-3,5,8-triazaacenaphthylene-2-carboxamide]  6.7

Same assay, conditions: unphosphorylated-BTK kinase domain, 50 nM Tracer 236, 60 minutes; pIC50 = negative log of the IC50 in molar

In order of rising “BTK_I_binding pIC50” value:
1. COc1ccc(N2C(=O)Nc3c(C(=O)N[C@@H]4CCCNC4)sc4nccc2c34)cc1 [Example 342, (R)-5-(4-Methoxyphenyl)-4-oxo-N-(piperidin-3-yl)-4,5-dihydro-3H-1-thia-3,5,8-triazaacenaphthylene-2-carboxamide]  5.2
2. C=CC(=O)N1CCC[C@@H](NC(=O)c2sc3nccc4c3c2NC(=O)N4c2ccc(C(C)(C)C)cc2)C1 [Example 334, (R)—N-(1-Acryloylpiperidin-3-yl)-5-(4-(tert-butyl)phenyl)-4-oxo-4,5-dihydro-3H-1-thia-3,5,8-triazaacenaphthylene-2-carboxamide]  5.5
3. Cc1cc(Oc2ccccc2)ccc1N1C(=O)Nc2c(C(=O)N[C@@H]3CNC(=O)C3)sc3nccc1c23 (single isomer, unassigned) [Example 470, (*S)-5-(*R)-(2-Methyl-4-phenoxyphenyl)-4-oxo-N-(5-oxopyrrolidin-3-yl)-4,5-dihydro-3H-1-thia-3,5,8-triazaacenaphthylene-2-carboxamide]  5.6
4. C=CC(=O)N1CC[C@@H](NC(=O)c2sc3nccc4c3c2NC(=O)N4c2ccc(OC)cc2C)C1 [Example 299, (R)—N-(1-Acryloylpyrrolidin-3-yl)-5-(4-methoxy-2-methylphenyl)-4-oxo-4,5-dihydro-3H-1-thia-3,5,8-triazaacenaphthylene-2-carboxamide]  6.1
5. Cc1cc(Oc2ccccc2)ccc1N1C(=O)Nc2c(C(=O)N[C@@H]3CCCN(C(=O)/C=C/CNS(C)(=O)=O)C3)sc3nccc1c23 [Example 383, (R,E)-5-(2-Methyl-4-phenoxyphenyl)-N-(1-(4-(methylsulfonamido)but-2-enoyl)piperidin-3-yl)-4-oxo-4,5-dihydro-3H-1-thia-3,5,8-triazaacenaphthylene-2-carboxamide]  7.2
6. Cc1cc(Oc2ccccc2)ccc1N1C(=O)Nc2c(C(=O)N[C@@H]3CCN(C(=O)/C(C#N)=C/C4CC4)C3)sc3nccc1c23 (single isomer, unassigned) [Example 491, (R,E)-N-(1-(2-Cyano-3-cyclopropylacryloyl)pyrrolidin-3-yl)-5-(*S)-(2-methyl-4-phenoxyphenyl)-4-oxo-4,5-dihydro-3H-1-thia-3,5,8-triazaacenaphthylene-2-carboxamide]  7.6
7. C=CC(=O)N1CC[C@@H](NC(=O)c2sc3nccc4c3c2NC(=O)N4c2ccc(Oc3ccccc3)c(Cl)c2)C1 [Example 558, (R)—N-(1-Acryloylpyrrolidin-3-yl)-5-(3-chloro-4-phenoxyphenyl)-4-oxo-4,5-dihydro-3H-1-thia-3,5,8-triazaacenaphthylene-2-carboxamide]  7.7
8. Cc1cc(Oc2ccccc2)ccc1N1C(=O)Nc2c(C(=O)N[C@@H]3CCCN(C(=O)/C(C#N)=C/C4(C)COC4)C3)sc3nccc1c23 (single isomer, unassigned) [Example 509, (R,EZ)—N-(1-(2-Cyano-3-(3-methyloxetan-3-yl)acryloyl)piperidin-3-yl)-5-(*S)-(2-methyl-4-phenoxyphenyl)-4-oxo-4,5-dihydro-3H-1-thia-3,5,8-triazaacenaphthylene-2-carboxamide]  7.9
9. C=CC(=O)N1CCC[C@@H](NC(=O)c2sc3nccc4c3c2NC(=O)N4c2cccc(-c3cccc(F)c3)c2)C1 [Example 500, (R)—N-(1-Acryloylpiperidin-3-yl)-5-(3′-fluoro-[1,1′-biphenyl]-3-yl)-4-oxo-4,5-dihydro-3H-1-thia-3,5,8-triazaacenaphthylene-2-carboxamide]  8.1

Same assay, conditions: unphosphorylated-BTK kinase domain, 60 minutes incubation, 50 nM Tracer 236; pIC50 = negative log of the IC50 in molar

In order of falling “BTK_I_binding pIC50” value:
1. COc1ccccc1Oc1ccc(N2C(=O)Nc3c(C(=O)NC4CCCN(C)C4)sc4nccc2c34)c(C)c1 (stereo not drawn) [Example 907, 5-(4-(2-Methoxyphenoxy)-2-methylphenyl)-N-(1-methylpiperidin-3-yl)-4-oxo-4,5-dihydro-3H-1-thia-3,5,8-triazaacenaphthylene-2-carboxamide]  6.7
2. O=C(NCCN1CCCCC1)c1sc2nccc3c2c1NC(=O)N3c1ccc(Oc2ccccc2)cc1 [Example 932, 4-Oxo-5-(4-phenoxyphenyl)-N-(2-(piperidin-1-yl)ethyl)-4,5-dihydro-3H-1-thia-3,5,8-triazaacenaphthylene-2-carboxamide]  6.1
3. COc1ccc(N2C(=O)Nc3c(C(=O)N[C@H]4CCCN(C(=O)/C(C#N)=C/C5CC5)C4)sc4nccc2c34)c(C)c1 [Example 946, (S,E)-N-(1-(2-Cyano-3-cyclopropylacryloyl)piperidin-3-yl)-5-(4-methoxy-2-methylphenyl)-4-oxo-4,5-dihydro-3H-1-thia-3,5,8-triazaacenaphthylene-2-carboxamide]  5.4
4. CC(C)(C)c1ccc(N2C(=O)Nc3c(C(=O)N[C@@H]4CCCNC4)sc4nccc2c34)cc1 [Example 954, (R)-5-(4-(tert-Butyl)phenyl)-4-oxo-N-(piperidin-3-yl)-4,5-dihydro-3H-1-thia-3,5,8-triazaacenaphthylene-2-carboxamide]  5.0
